Measurements from PubChem BioAssay (NCI).
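How tested: cells in 96-well plates exposed to compound for 48 hours at five concentrations. GI50 marks 50% less growth. TGI marks complete inhibition of growth.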

Legend:
Assay in all cases: inhibition of tumour cell growth, NCI panel, 48 h
ACHN renal = tested on: ACHN renal
NCI/ADR-RES ovarian = tested on: NCI/ADR-RES ovarian
U251 CNS = tested on: U251 CNS
SK-MEL-2 melanoma = tested on: SK-MEL-2 melanoma
SF-268 CNS = tested on: SF-268 CNS
CCRF-CEM leukemia = tested on: CCRF-CEM leukemia
NCI-H460 lung = tested on: NCI-H460 lung
SK-MEL-5 melanoma = tested on: SK-MEL-5 melanoma
RPMI-8226 leukemia = tested on: RPMI-8226 leukemia
M14 melanoma = tested on: M14 melanoma

| Structure (SMILES) | TGI (ACHN renal) | TGI (NCI/ADR-RES ovarian) | TGI (U251 CNS) | TGI (SK-MEL-2 melanoma) | TGI (SF-268 CNS) | TGI (CCRF-CEM leukemia) | TGI (NCI-H460 lung) | TGI (SK-MEL-5 melanoma) | TGI (RPMI-8226 leukemia) | TGI (M14 melanoma) | GI50 (ACHN renal) | GI50 (NCI/ADR-RES ovarian) | GI50 (U251 CNS) | GI50 (SK-MEL-2 melanoma) | GI50 (SF-268 CNS) | GI50 (CCRF-CEM leukemia) | GI50 (NCI-H460 lung) | GI50 (SK-MEL-5 melanoma) | GI50 (RPMI-8226 leukemia) | GI50 (M14 melanoma) |
| --- | --- | --- | --- | --- | --- | --- | --- | --- | --- | --- | --- | --- | --- | --- | --- | --- | --- | --- | --- | --- |
| O=C1N[C@H]2c3c(Cl)sc(Cl)c3C(=O)[C@H]2O1 | 35.6 µM | 37.2 µM | 15.7 µM | > 59.9 µM | 37 µM | > 21.2 µM | 37 µM | > 69 µM | > 80.8 µM | 52.6 µM |  |  |  |  |  |  |  |  |  |  |
| CN(NC(=O)c1ccco1)C1=NCCCCN1 | > 100 µM | > 100 µM | > 100 µM | > 100 µM | > 100 µM | > 100 µM | > 100 µM | > 100 µM | > 100 µM | > 100 µM |  |  |  |  |  |  |  |  |  |  |
| C[N+]1(C)CC=C(N2CCOCC2)CC1 | > 10 µM | > 10 µM | > 10 µM | > 10 µM | > 10 µM | > 10 µM | > 10 µM | > 10 µM | > 10 µM | > 10 µM |  |  |  |  |  |  |  |  |  |  |
| NC1=CN(CCCO)C2=N/C(=C\c3ccco3)C(=O)N12 | > 100 µM | > 100 µM | > 100 µM | > 100 µM | > 100 µM | > 100 µM | > 100 µM | > 100 µM | > 100 µM | > 100 µM |  |  |  |  |  |  |  |  |  |  |
| CCOC(=O)c1nc2c3c(ncn2n1)Oc1c(c(-c2ccccc2)nn1-c1ccccc1)C3c1ccc(OC)c(OC)c1 (stereo not given) | > 100 µM | > 100 µM | > 100 µM | > 100 µM | 71.1 µM | > 100 µM | > 100 µM | > 100 µM | > 100 µM | > 100 µM |  |  |  |  |  |  |  |  |  |  |
| CN(C)CC1CCC/C(=C\c2ccc(N(C)C)cc2)C1=O (stereo not given) | 34 µM | 65.3 µM | 30.7 µM | 22.3 µM | 3.57 µM | > 100 µM | 28.5 µM | 31.4 µM | > 100 µM | 9.46 µM |  |  |  |  |  |  |  |  |  |  |
| Oc1ccc(-c2cc(-c3c(O)cc(O)cc3O)on2)cc1 | > 100 µM | > 100 µM | > 100 µM | > 100 µM | > 100 µM | > 100 µM | > 100 µM | > 100 µM | > 100 µM | > 100 µM |  |  |  |  |  |  |  |  |  |  |
| CCOC(=O)C1(Cc2ccc(C)cc2)Cc2ccc(C)cc2C1=O (stereo not given) | > 100 µM | 32.5 µM | 35.6 µM | 32.9 µM | > 100 µM | 64.1 µM | 82.4 µM | 20.8 µM | 64.2 µM | 47.3 µM |  |  |  |  |  |  |  |  |  |  |
| COc1c(C2(c3ccc(F)cc3)SCCCS2)c(=O)c1=O | > 100 µM | > 100 µM | > 100 µM | > 100 µM | > 100 µM | > 100 µM | > 100 µM | > 100 µM | > 100 µM | > 100 µM |  |  |  |  |  |  |  |  |  |  |
| C[N+]1(C)C2Cc3ccccc3C1Cc1ccccc12 | > 100 µM | > 100 µM | > 100 µM | > 100 µM | > 100 µM | > 100 µM | > 100 µM | > 100 µM | > 100 µM | > 100 µM |  |  |  |  |  |  |  |  |  |  |
| O=C(NCc1cn(Cc2cccc(Oc3ccccc3)c2)nn1)c1cccnc1Nc1ccccc1 | > 100 µM | > 100 µM | 18.9 µM | 75.1 µM | 37.5 µM | > 100 µM | 10.5 µM | 28.3 µM | > 100 µM | 9.86 µM | 5.67 µM | 2.47 µM | 3.61 µM | 6.05 µM | 3.22 µM | 3.34 µM | 2.85 µM | 3.89 µM | 3.61 µM | 2.86 µM |
| N#CI1OC(=O)c2ccccc21 | > 100 µM | > 100 µM | > 100 µM | > 100 µM | > 100 µM | > 100 µM | > 100 µM | > 100 µM | > 100 µM | > 100 µM |  |  |  |  |  |  |  |  |  |  |
| C1=C2SSC3=CC=C(SSc4ccc(s4)SSC4=CC=C(SSC(=C1)S2)S4)S3 | > 100 µM | > 100 µM | > 100 µM | > 100 µM | > 100 µM | > 100 µM | > 100 µM | > 100 µM | > 100 µM | > 100 µM |  |  |  |  |  |  |  |  |  |  |
| Cc1cc(-c2ccc(C(=O)C(Cl)(Cl)Cl)[nH]2)on1 | > 100 µM | 94.3 µM | 28.7 µM | 66.7 µM | > 100 µM | > 100 µM | 21.8 µM | > 100 µM | > 100 µM | > 100 µM |  |  |  |  |  |  |  |  |  |  |
| NCCC1(N)CCNCC1 | > 100 µM | > 100 µM | > 100 µM | > 100 µM | > 100 µM | > 100 µM | > 100 µM | > 100 µM | > 100 µM | > 100 µM |  |  |  |  |  |  |  |  |  |  |
| Cc1ccc(N=Nc2c(O)c3ccccc3[nH]c2=O)c(S(=O)(=O)N(C)C)c1 | > 100 µM | > 100 µM | > 100 µM | > 100 µM | > 100 µM | > 100 µM | > 100 µM | > 100 µM | > 100 µM | > 100 µM |  |  |  |  |  |  |  |  |  |  |
| O=C1Nc2ccccc2C(=O)OC(Cc2ccccc2)=Nc2ccccc21 | > 100 µM | > 100 µM | > 100 µM | > 100 µM | > 100 µM | > 100 µM | > 100 µM | > 100 µM | > 100 µM | > 100 µM |  |  |  |  |  |  |  |  |  |  |
